Experimental data from US9416128B2, “Fused heterocyclic compounds as ion channel modulators” (Gilead Sciences, Inc., priority 2013, dated 2016).

How the values were obtained:
[1] = molecular target: hNaV1.1 (SCN1A) (Homo sapiens, UniProt P35498); experiment: Use-dependent inhibition of the CNS NaV1.1 sodium channel; format: cell-based; conditions: % inhibition, 25 Hz; for inhibition at 1 µM: use-dependent block at 1 uM, read-out: Nav1.1 UDB 25 Hz 1 uM; for inhibition at 10 µM: use-dependent block at 10 uM, read-out: Nav1.1 UDB 25 Hz 10 uM
Procedure, shortened: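 Whole-cell automated patch clamp on HEK-293 cells stably expressing hNaV1.1, 23-25° C., CsF internal solution. Peak current at pulse 20 of a 25 Hz train (0 mV, 20 ms) from −120 mV, normalized to pulse 1; percentage inhibition versus compound-free condition.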

[2] = molecular target: T1, hNaV1.2 (SCN2A) (Homo sapiens, UniProt Q99250); experiment: Use-dependent inhibition of the CNS NaV1.2 sodium channel; format: cell-based; conditions: HEK-293, % inhibition, 25 Hz; for inhibition at 1 µM: use-dependent block at 1 uM, read-out: Nav1.2 UDB 25 Hz 1 uM; for inhibition at 10 µM: use-dependent block at 10 uM, read-out: Nav1.2 UDB 25 Hz 10 uM
T1 construct: expressed in transfected cells
T1 sequence (Q99250 whole entry): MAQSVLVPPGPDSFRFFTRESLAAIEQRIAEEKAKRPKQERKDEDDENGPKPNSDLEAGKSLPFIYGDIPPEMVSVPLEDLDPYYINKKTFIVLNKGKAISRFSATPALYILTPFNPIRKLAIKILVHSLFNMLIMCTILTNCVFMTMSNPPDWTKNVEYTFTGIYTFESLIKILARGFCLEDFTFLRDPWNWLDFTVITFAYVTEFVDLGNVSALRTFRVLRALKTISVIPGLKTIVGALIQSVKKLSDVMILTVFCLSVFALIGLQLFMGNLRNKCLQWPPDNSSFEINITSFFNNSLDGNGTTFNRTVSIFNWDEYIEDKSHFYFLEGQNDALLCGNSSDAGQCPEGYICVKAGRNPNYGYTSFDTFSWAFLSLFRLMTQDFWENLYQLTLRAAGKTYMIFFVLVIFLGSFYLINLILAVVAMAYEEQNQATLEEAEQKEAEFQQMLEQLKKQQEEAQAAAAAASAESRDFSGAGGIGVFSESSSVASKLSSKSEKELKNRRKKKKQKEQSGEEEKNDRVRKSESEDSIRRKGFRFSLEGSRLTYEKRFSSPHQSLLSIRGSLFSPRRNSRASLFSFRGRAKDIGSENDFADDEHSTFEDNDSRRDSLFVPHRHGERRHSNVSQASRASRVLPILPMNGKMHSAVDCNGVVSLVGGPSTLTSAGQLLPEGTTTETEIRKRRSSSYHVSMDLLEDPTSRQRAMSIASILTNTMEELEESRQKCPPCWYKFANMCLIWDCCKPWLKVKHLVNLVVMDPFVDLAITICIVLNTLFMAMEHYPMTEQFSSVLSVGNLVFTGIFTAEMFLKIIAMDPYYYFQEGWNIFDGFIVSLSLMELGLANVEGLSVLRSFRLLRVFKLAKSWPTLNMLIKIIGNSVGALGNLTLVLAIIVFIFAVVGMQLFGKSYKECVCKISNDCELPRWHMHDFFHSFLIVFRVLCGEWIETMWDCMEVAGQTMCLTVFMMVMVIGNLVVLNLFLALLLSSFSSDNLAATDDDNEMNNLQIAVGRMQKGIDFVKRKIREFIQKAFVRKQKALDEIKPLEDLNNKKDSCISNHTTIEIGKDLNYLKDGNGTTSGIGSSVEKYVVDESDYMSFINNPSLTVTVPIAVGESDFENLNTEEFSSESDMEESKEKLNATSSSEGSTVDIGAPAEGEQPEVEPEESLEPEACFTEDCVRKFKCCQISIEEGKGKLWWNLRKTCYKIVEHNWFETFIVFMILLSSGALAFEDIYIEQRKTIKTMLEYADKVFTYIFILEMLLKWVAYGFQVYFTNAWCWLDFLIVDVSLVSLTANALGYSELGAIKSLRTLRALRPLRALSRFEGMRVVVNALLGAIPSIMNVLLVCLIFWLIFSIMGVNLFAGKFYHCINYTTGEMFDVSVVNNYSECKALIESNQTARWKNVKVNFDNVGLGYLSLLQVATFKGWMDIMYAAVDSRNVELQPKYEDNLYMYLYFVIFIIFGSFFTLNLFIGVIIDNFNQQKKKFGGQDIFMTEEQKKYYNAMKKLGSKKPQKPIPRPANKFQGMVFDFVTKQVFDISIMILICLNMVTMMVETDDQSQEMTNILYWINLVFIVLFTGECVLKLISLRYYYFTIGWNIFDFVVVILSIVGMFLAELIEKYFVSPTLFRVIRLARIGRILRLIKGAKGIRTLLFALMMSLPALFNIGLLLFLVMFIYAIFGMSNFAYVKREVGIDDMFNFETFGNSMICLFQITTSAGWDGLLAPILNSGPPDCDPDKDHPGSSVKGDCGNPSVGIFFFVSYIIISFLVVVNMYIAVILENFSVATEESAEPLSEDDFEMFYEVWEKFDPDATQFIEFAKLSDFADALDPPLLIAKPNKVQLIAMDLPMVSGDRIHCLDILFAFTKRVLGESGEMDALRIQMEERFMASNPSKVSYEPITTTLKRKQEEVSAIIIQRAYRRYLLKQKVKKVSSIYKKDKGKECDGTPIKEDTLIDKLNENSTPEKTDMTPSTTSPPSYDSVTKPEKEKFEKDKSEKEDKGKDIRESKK
T1 sequence (Q07699 19-218 partner): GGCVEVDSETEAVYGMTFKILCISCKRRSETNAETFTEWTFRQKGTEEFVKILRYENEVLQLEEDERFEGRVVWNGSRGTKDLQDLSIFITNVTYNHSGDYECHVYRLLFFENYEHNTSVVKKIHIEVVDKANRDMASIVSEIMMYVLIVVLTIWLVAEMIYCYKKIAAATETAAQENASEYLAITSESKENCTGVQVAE
T1 sequence (O60939 30-215 partner): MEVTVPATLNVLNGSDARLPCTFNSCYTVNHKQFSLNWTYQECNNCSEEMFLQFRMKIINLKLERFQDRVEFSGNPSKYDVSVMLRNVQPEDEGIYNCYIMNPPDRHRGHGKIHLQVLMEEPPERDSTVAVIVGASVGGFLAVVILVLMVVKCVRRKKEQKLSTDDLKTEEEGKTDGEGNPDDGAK
Procedure, shortened: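 Use-dependent block of human NaV1.2 was recorded by automated whole-cell patch clamp (QPatch) in HEK-293 cells stably expressing hNaV1.2 with beta1 and beta2 subunits. From a −120 mV holding potential, a 25 Hz train of twenty 20 ms pulses to 0 mV was applied. Peak current at pulse 20, normalized to pulse 1, gave percent inhibition versus compound-free conditions at 23-25° C.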

Compound | inhibition at 1 µM [1] [%] | inhibition at 10 µM [1] [%] | inhibition at 1 µM [2] [%] | inhibition at 10 µM [2] [%]
Cc1csc(CN2Cc3cc(-c4ccc(Cl)c(Cl)c4)ccc3OC2=O)n1 [Example 56, 6-(3,4-dichlorophenyl)-3-((4-methylthiazol-2-yl)methyl)-3,4-dihydro-2H-benzo[e][1,3]oxazin-2-one] | < 5 | 10.7 | < 5 | 15.2
Cc1ccnc(CN2Cc3cc(-c4ccc(OC(F)(F)F)cc4C)ccc3OC2=O)n1 [Example 33, 6-(2-methyl-4-(trifluoromethoxy)phenyl)-3-((4-methylpyrimidin-2-yl)methyl)-3,4-dihydro-2H-benzo[e][1,3]oxazin-2-one] | 5.5 | 61.4 | 17.2 | 55.2
